# According to US11590181B2, “Serpin production” (SOCIETE DES PRODUITS NESTLE S.A., priority 2017, dated 2023):
# Where no end group is shown, it is not given here.
# Columns and labels:
# [1] = tested on: serpin gene in B. longum NCC 2705; assay: Sugar induction of serpin gene transcription in Biolector culture (qRT-PCR); format: cell-based; settings: 180 min sugar induction at 0.1%, relative to growth in only MRSc (FIG. 1)
# Protocol: FIG. 1—Relative transcription level of serpin gene in B. longum NCC 2705 after 180 min sugar induction at a concentration of 0.1%. The bars indicate the relative amounts of serpin mRNAs for the specific samples comparing to that of growth in only MRSc. Black bars represent significant induction. The standard deviation was obtained from at least 2 different experiments (95% confidence interval).
# BL NCC 2705 (B. longum strain CNCM I-2618) was grown in Biolector (growth conditions—anaerobic, 37° C., MRS+5 mM L-cysteine (MRSc).
# 48-well microtiter plate with pH sensor and dissolved oxygen (DO) sensor were used to culture the strains in Biolector (m2p-labs Aachen, Germany). It was continuously shaken to prevent bacteria aggregation and measurements were performed every 15 min. Plates were sealed with a gas permeable film and an anaerobe-chamber provides well-defined anaerobic gassing conditions. Fermentation parameters like biomass, pH and dissolved oxygen (DO) were monitored online throughout the entire growth using the BioLection HMI software. Growth parameters were:
# The following carbohydrates were added to the cultures individually:
# B. longum NCC 2705 was then further cultivated in the same conditions for 180 min, after which samples (500 μl) were collected and serpin mRNA levels measured. Every fermentation was performed at least in duplicate.
# Total RNA isolation—500 μl of bacterial cultures were suspended in 1 ml of RNA protect bacteria reagent (Qiagen, Germany) and briefly centrifuged 10 min at 5000 g to harvest cells for total RNA extraction.
# Total RNA was extracted using the RNeasy total RNA Mini kit (Qiagen, Germany, Ca. No. 74101) with protease K (Qiagen, Germany, Ca. No. 19131) and further treated using RNase-free DNase set (Qiagen, Germany, Ca. No. 79254). Total RNA was then eluted in 40 μl water. […]
# mRNA fold expression analysis method—The Pfaffl method was used to calculate relative transcription changes (Pfaffl, 2012, Martin Filion, Hg., Quantitative real-time PCR in Applied Microbiology, 53-62) for which the equation is shown in Equation 1: […]
# [2] = tested on: BL NCC 2705 serpin; assay: Lactose dose response in 10 L fermenter, serpin mRNA fold induction; format: cell-based, B. longum; settings: addition of 0.1% lactose, among 0.05%, 1%, 2% and 2.75%, glucose added to 5.5% total sugar, base 8 h culture (FIG. 2)
# Protocol: FIG. 2—Serpin mRNA level of B. longum NCC 2705 fermented in different growth medium after 8 h, 12 h and 16 h. Different proportions of glucose was replaced by lactose and fructose as shown in the y-axis and the total amount of sugar percentage was kept stable at 5.5%. The values were calculated based on B. longum NCC 2705 growth after 8 h in 5.5% glucose. Black bars represent significant induction. In order to optimize the effect of lactose on induction of BL NCC 2705 serpin, a dose response was performed. The fermentation was performed in a 10 L Biostar B Plus fermenter with MRSc medium, supplemented with 0.05% cysteine as base, and different concentration of lactose (0.05%, 0.1%, 1%, 2% and 2.75%) were added to the medium. Glucose was supplemented to the different recipes to reach a final total amount of 5.5% of total sugar. Serpin mRNA fold induction was calculated using the 8 h MRSc grown BL NCC 2705 culture as a base (FIG. 2).
# [3] = target: T1, transglutaminase 2 (TG2) (Homo sapiens, UniProt P21980); settings: in vitro; inhibits deamidation of the 33-mer gliadin peptide; cited from earlier work
# T1 sequence (P21980 1-687): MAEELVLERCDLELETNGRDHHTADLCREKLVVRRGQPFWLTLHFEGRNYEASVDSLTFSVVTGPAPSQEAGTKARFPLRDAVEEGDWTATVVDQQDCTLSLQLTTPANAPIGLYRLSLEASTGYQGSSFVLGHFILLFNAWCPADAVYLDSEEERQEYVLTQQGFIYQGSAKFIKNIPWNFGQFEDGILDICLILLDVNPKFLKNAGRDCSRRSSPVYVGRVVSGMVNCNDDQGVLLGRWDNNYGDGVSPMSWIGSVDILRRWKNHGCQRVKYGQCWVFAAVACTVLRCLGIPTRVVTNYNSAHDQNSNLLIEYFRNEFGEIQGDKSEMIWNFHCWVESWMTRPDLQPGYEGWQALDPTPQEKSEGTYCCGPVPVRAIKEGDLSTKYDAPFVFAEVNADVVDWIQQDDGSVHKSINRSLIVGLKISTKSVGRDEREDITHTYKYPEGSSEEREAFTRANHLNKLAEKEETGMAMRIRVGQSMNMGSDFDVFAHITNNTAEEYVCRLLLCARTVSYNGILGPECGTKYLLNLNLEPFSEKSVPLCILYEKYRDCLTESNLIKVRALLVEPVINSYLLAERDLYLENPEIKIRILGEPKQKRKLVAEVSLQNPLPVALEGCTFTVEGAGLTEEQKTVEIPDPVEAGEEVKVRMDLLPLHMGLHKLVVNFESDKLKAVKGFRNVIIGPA
# [4] = tested on: mouse model of gluten sensitivity; settings: elafin delivered by recombinant Lactococcus lactis; cited from earlier work
# [5] = tested on: elastases and proteinase; settings: cited from earlier work
Molecule,serpin mRNA levels of B. longum NCC 2705 [1],serpin mRNA level at end of fermentation (16 h) [2],inhibition of transglutaminase 2 (TG2) [3],gluten-induced pathology and intestine inflammation [4],inhibitory capacity against various forms of elastases and proteinase [5]
"O=C(CO)[C@@H](O)[C@H](O)[C@H](O)CO [fructose, Fructose]",increase,,,,
"OC[C@H]1O[C@@H](O[C@H]2[C@H](O)[C@@H](O)C(O)O[C@@H]2CO)[C@H](O)[C@@H](O)[C@H]1O (stereo partly shown) [lactose, Lactose]",increase,highest,,,
"OC[C@H]1O[C@H](OC[C@H]2O[C@H](O[C@]3(CO)O[C@H](CO)[C@@H](O)[C@@H]3O)[C@H](O)[C@@H](O)[C@@H]2O)[C@H](O)[C@@H](O)[C@H]1O [raffinose, Raffinose]",increase,,,,
"elafin: human serine protease inhibitor (AQEPVKGPVSTKPGSCPIILIRCAMLNPPNRCLKDTDCPGIKKCCEGSCGMACFVPQ; ends and bridges not checked; cysteine pairing not given here; UniProt P19957 61-117, looked up)",,,moderately inhibits,reduce gluten-induced pathology and normalise intestine inflammation,potent inhibitory capacity
